# Laboratory results taken from patent US4889851A, “Benzothiadiazine compounds, and pharmaceutical composition comprising the same” (Fujisawa Pharmaceutical Co, Ltd., priority 1986, dated 1989).
# Tested on: Neonatal calvaria (bone resorption)
# Experiment: Inhibition of hPTH-induced bone resorption in cultured neonatal rat calvaria (calcium accumulation in medium)
# Type: cell-based, rat (Wistar)
# Settings: Test Compound 1×10^-5 M with hPTH(1-34) 1×10^-8 M; calvaria halves cultured 6 days at 37° C.; total calcium in medium by OCPC method
# Method: Neonatal calvaria were dissected aseptically from 1-2 day old rat (Wistar), washed in Dulbecco's modified eagle's medium and divided along the sagittal suture. The calvaria halves were pooled and randomized in the different groups. The calvaria halves were cultured separately as free-floating bones in multi-well dishes containing a 2 ml of Dubecco's modified eagle's medium, with 10% heat-inactivated (56° C. for 1 hr) fetal calf serum. Treatment of hPTH(1-34)(1×10 ^-8 M) and the Test Compound (1×10 ^-5 M) was begun at zero time. All incubations were performed at 37° C., under an atmosphere of 95% air and 5% CO2 for 6 days. Bone resorption was determined by measuring the accumulation of calcium in the medium at 6 days. The concentration of total calcium in culture medium was measured by OCPC method with a spectrophotometer (Hitachi model U-3200, Tokyo, Japan).
# As comparative data, similar tests were conducted using culture medium with hPTH (1×10^-8 M)only, and culture medium without both hPTH and Test Compound.
# Test results were represented in terms of percentage of inhibition calculated by the following formula: [formula] CD the concentration of total calcium in culture medium treated with both hPTH and Test Compound
# CO the concentration of total calcium in control culture medium without both hPTH and Test Compound
# CP the concentration of total calcium in culture medium treated with hPTH only
row,SMILES,Inhibition (%)
1,"CC(C)Oc1ccc2c(c1)N(C)C(=O)N(c1ccc(C(F)(F)F)cc1)S2(=O)=O [(d), 2-(4-Trifluoromethylphenyl)-4-methyl-6-isopropoxy-2H-1,2,4-benzothiadiazine-3(4H)-one 1,1-dioxide]",52.9%
2,"C[C@@H](Oc1ccc2c(c1)N(C)C(=O)N(c1ccc(Cl)cc1)S2(=O)=O)C(=O)O [(f), (1R)-(+)-2-(4-Chlorophenyl)-6-(l-carboxyethoxy)-4-methyl-2H-1,2,4-benzothiadiazine-3(4H)-one 1,1-dioxide]",50.2%
3,"CC(Oc1ccc2c(c1)N(C)C(=O)N(c1ccc(Cl)cc1)S2(=O)=O)C(=O)O (stereo not drawn) [(e), 2-(4-Chlorophenyl)-6-(l-carboxyethoxy)-4-methyl-2H-1,2,4-benzothiadiazine-3(4H)-one 1,1-dioxide]",67.9%
4,"CC(C)COc1ccc2c(c1)N(C)C(=O)N(c1ccc(Cl)cc1)S2(=O)=O [(b), 2-(4-Chlorophenyl)-4-methyl-6-(2-methylpropoxy)-2H-1,2,4-benzothiadiazine-3(4H)-one 1,1-dioxide]",56.1%
5,"CC(C)Oc1ccc2c(c1)N(C)C(=O)N(c1ccc(Cl)cc1)S2(=O)=O [(a), 2-(4-Chlorophenyl)-6-isopropoxy-4-methyl-2H-1,2,4-benzothiadiazine-3(4H)-one 1,1-dioxide]",79.7%
6,"CN1C(=O)N(c2ccc(Cl)cc2)S(=O)(=O)c2ccc(OCC3CCCCC3)cc21 [(c), 2-(4-Chlorophenyl)-4-methyl-6-cyclohexylmethoxy-2H -1,2,4-benzothiadiazine-3(4H)-one 1,1-dioxide]",62.5%
